These results are taken from patent US10526580B2, “Differentiated cell population of endothelial cells derived from human pluripotent stem cells, composition, system, kit and uses thereof” (BIOCANT-ASSOCIAÇÃO DE TRANSFERÊNCIA DE TECNOLOGIA, priority 2012, dated 2020).

One data set deals with HUAECs. Briefly: 7-Cyclo in PDMS microfluidic system, static or flow (qRT-PCR, ELISA). The data set is classed as cell-based, human. To be noted: flow 20 dyne/cm2, 1 μM for 24 h. The procedure:
For the 7-cyclo studies the flow experiments were carried out in a microfluidic system developed by us. The microfluidic device was obtained using a cylindrical mold of 20 Gauge. Polydimethylsiloxane (PDMS) (Sylgard 184 Silicone elastomere base) was mixed at a 10:1 ratio (w/w) with curing agent (Sylgard 184 Silicon Elastomer Curing Agent) and the solution was poured onto a mold (20 gauge needle laid on a plastic dish) and cured at 80° C. for about 3 h. The microchannel was cut to 0.5 cm length (900 μm inner diameter) and treated with Plasma Clean (Electronic Diener Femto Plasma Surface Technology version 5) for 2 min with argon gas (2 mBar) before immersing it in a solution of 0.1% gelatin. […]
(§1) Evaluation of the levels of vascular injury by specific markers. ELISA kits analyzed supernatants collected from the shear stress experiments for vWF and vWFpp (Gen-Probe GTI Diagnostic) and ADMA (Enzo Life Sciences), according to manufacturer's recommendations.
To evaluate the effects of 7-Cyclo in flow conditions, hESC-derived ECs were cultured in a poly(dimethylsiloxane) (PDMS) microfluidic system with cylindrical channels for 7 days at 20 dyne/cm2 (FIG. 5A). […] At day 7, cells were exposed to EGM-2 medium supplemented with 1 μM of 7-Cyclo for 24 h, and finally analyzed at morphological, genetic and secretion levels. […]
In general terms: Real-time PCR tracks product formation cycle by cycle.

For data set [1], the system named is mouse aortic endothelial cells (mAEC). The experiment in a line: Gene expression in mouse aortic endothelial cells after 7-Cyclo. Type of data set: cell-based. As for the experimental part:
To further validate the effects of 7-Cyclo at the embryonic vasculature, mouse embryonic ECs were incubated at day 12.5 (mAEC E12.5) and postnatal day 1 (p1) with 7-Cyclo (1 μM) for 24 h. […] In contrast, 7-Cyclo has no effect in p1 ECs. The degree of action of 7-Cyclo in mAEC E12.5 is similar to the one identified in hESC-derived ECs (FIG. 5C).
Total RNA from experimental groups was isolated using a protocol with TRIzol (Invitrogen) and RNeasy Minikit (Qiagen, Valencia). cDNA was prepared from 1 μg total RNA using Taqman Reverse transcription reagents (Applied Biosystems, CA). Quantitative PCR (qPCR) was performed using Power SYBR Green PCR Master Mix and the detection using an ABI PRISM 7500 Fast System (Applied Biosystems). Quantification of target genes was performed relative to the reference GAPDH gene: relative expression=2^[−(Ctsample^−CtGADPH^)]. The mean minimal cycle threshold values (Ct) were calculated from 4 reactions. In some cases, gene expression in each experimental group was normalized to the relative gene expression found in HUVECs, HUAECs or undifferentiated hESCs. Primer sequences are published in Table 7 of expanded materials and methods.

Data set [2] relates to kinase activity of HUAECs. The experiment in a line: Kinase-Glo Luminescence Kinase Assay of cells. The data set is classed as cell-based, human. Particulars: 24 h incubation, 0.1 or 1 μM. The procedure: (§2) The kinase activity of the hESC-derived ECs and HUAECs was assessed by luminescence (signal is inversely correlated with the level of kinase activity) in the absence or presence of the compound 7-Cyclo (FIG. 6D).
(§3) The kinase activity of cells was measured by a Kinase-Glo® Luminescence Kinase Assay (Promega). Cells incubated with 7-Cyclo for 24 h were treated with the kinase reagent from the kit and luminescence acquired using a Spectra Max Gemini luminometer. The luminescence signal is correlated with the amount of ATP present and its inversely correlated with the amount of kinase activity.
In general terms: Kinase-Glo reads ATP consumption through a luciferase reaction.

Data set [3] deals with kinase activity of hESC-derived ECs. Briefly: Kinase-Glo Luminescence Kinase Assay of cells. Type of data set: cell-based, human. To be noted: 24 h incubation, 0.1 or 1 μM. As for the experimental part: as §2, §3
The test system of data set [4] is microvessels of hESC-derived ECs. The experiment in a line: Matrigel assay, disruption of vascular networks. Type of data set: cell-based, human. To be noted: 1 μM, 20 h, on top of Matrigel. The procedure: (§4) To test the 7-Cyclo properties in the disruption of vascular networks, microvessels of hESC-derived ECs, HUAECs and HAECs were formed on top of Matrigel and then exposed to the drug for 20 h.
(§5) A 24-well plate was coated with Matrigel (0.4 mL, BD Biosciences) per well and incubated at 37° C. for 30 min. Cells were seeded on top of the polymerized Matrigel at a concentration of 1×10^5 cells per 300 μL of EGM-2 medium. After 1 h of incubation at 37° C., an extra 1 mL of EGM-2 was added. After 12 h, medium supplemented with 7-Cyclo (0, 0.1 or 1 μM) was added. Cord formation was evaluated by phase contrast microscopy (Carl Zeiss International, Germany), at time 0, 3 h and 20 h after 7-Cyclo addition.

For data set [5], the system named is microvessels formed by HAECs. Briefly: Matrigel assay, disruption of vascular networks. Type of data set: cell-based, human. Particulars: 1 μM, 20 h, on top of Matrigel. The procedure:
as §4, §5

In data set [6] the test system is microvessels formed by HUAECs. Briefly: Matrigel assay, disruption of vascular networks. The data set is classed as cell-based, human. To be noted: 1 μM, 20 h, on top of Matrigel. As for the experimental part:
as §4, §5

The subject of another data set is Xenopus embryos. To be noted: 20 μM; cited from earlier work.
Another data set relates to hESC-derived ECs. Briefly: 7-Cyclo in PDMS microfluidic system, static or flow (morphology, qRT-PCR, ELISA). Type of data set: cell-based, human. As for the experimental part: For the 7-cyclo studies the flow experiments were carried out in a microfluidic system developed by us. The microfluidic device was obtained using a cylindrical mold of 20 Gauge. Polydimethylsiloxane (PDMS) (Sylgard 184 Silicone elastomere base) was mixed at a 10:1 ratio (w/w) with curing agent (Sylgard 184 Silicon Elastomer Curing Agent) and the solution was poured onto a mold (20 gauge needle laid on a plastic dish) and cured at 80° C. for about 3 h. The microchannel was cut to 0.5 cm length (900 μm inner diameter) and treated with Plasma Clean (Electronic Diener Femto Plasma Surface Technology version 5) for 2 min with argon gas (2 mBar) before immersing it in a solution of 0.1% gelatin. HESC-derived ECs (20×10^6 cells/mL) or HUAECs were seeded on PDMS microchannels (3.18 μL cell suspension per channel) devices and grown until confluence. Using a programmed IBIDI pump with positive pressure, the cell monolayer was perfused with EGM-2 medium for 7 days; shear stress of 20 dyne/cm2 (. After 7 days the flow was stopped, the cells imaged, and then stained or collected for posterior gene analysis. Medium was collected for ELISA assays. In some experiments, cells were cultured in medium supplemented with 1 μM 7-cyclo (Sigma) for an additional time of 24 h, under shear stress. Static controls were carried out in the microfluidic system but without flow.
as §1
To evaluate the effects of 7-Cyclo in flow conditions, hESC-derived ECs were cultured in a poly(dimethylsiloxane) (PDMS) microfluidic system with cylindrical channels for 7 days at 20 dyne/cm2 (FIG. 5A). ECs were able to form a confluent monolayer in the entire inner surface of the channel after 48 h. At day 7, cells were exposed to EGM-2 medium supplemented with 1 μM of 7-Cyclo for 24 h, and finally analyzed at morphological, genetic and secretion levels. […] Importantly, hESC-derived ECs cultured under flow conditions in the presence of 7-Cyclo secrete higher levels of ADMA (2.5 fold) and vWFpp:vWF (1.6 fold) than without the drug, and significant higher levels of ADMA than HUAECs.

Where [7] appears, read: flow 20 dyne/cm2, 1 μM for 24 h, versus static conditions.
Where [8] appears, read: flow conditions, 1 μM for 24 h, ELISA.

Turning to `Nc1ncnc2c1c(-c1ccc(Oc3ccccc3)cc1)cn2C1CCCC1` [7-Cyclo, 7-cyclopentyl-5-(4-phenoxy)phenyl-7H-pyrrolo[2,3-d]pyrimidin-4-ylamine], in the data set with HUAECs, the “down-regulation of DDAH-1 and DDAH-2” value is “No down-regulation”; the “expression of inflammatory genes” value was “only ICAM-1 and eNOS genes were up-regulated”. In addition, the “inflammation, oxidative stress sensing, vascular modulation and vascular injury sensing genes” value in [1] (mAEC at E12.5, 1 μM for 24 h, versus cells without treatment) is on record as “statistically up-regulated”. For the same molecule, the “effect on gene expression” value in data set [1] (postnatal day 1 (p1) ECs, 1 μM for 24 h) is “no effect”. In data set [2], the “kinase activity versus time zero (luminescence)” value was “no significant decrease”. Further, the “kinase activity versus time zero (luminescence)” value in data set [3] is reported as “decreased significantly”. Besides, in [4], the “network length and number of sprouts in microvessels” value was “statistically significant reduction”. Also, the “effect on network length and number of sprouts in microvessels” value in data set [5] is “negligible effect”. The “effect on network length and number of sprouts in microvessels” value in data set [6] is on record as “negligible effect”. Further, the “effect on vasculature of Xenopus embryos” value in the data set with Xenopus embryos was “interfere with angiogenic sprouting and disrupt blood vessel formation”. Further, in the data set with hESC-derived ECs (flow 20 dyne/cm2, 1 μM for 24 h), the cell morphology result was “significant alterations”. In the data set on hESC-derived ECs (setting [7]), the “expression of DDAH1 and DDAH2” value is recorded as “statistically lower levels”; the “expression of inflammatory genes ICAM-1, E-selectin, HO-1 and eNOS” value was “statistically higher levels”. Moreover, in the data set with hESC-derived ECs (setting [8]), the “secreted ADMA versus without the drug” value was determined as 2.5 fold and the “secreted vWFpp:vWF versus without the drug” value came out at 1.6 fold.
